Measured values reported in ChEMBL document CHEMBL4196088, “Induction of cell killing and autophagy by amphiphilic pyrrolidine derivatives on human pancreatic cancer cells” (Eur J Med Chem, 2018).
Calls of active or inactive are those of the source. The rule behind the calls is not given here.

How the values were obtained:
[1] = tested on: PANC-1; test: Growth inhibition of human PANC1 cells after 72 hrs by XTT assay; type: functional, cell-based; details: PANC-1, 72 h
[2] = tested on: PANC-1; test: Induction of apoptosis in human PANC1 cells assessed as accumulation at sub-G0/G1 phase at 10 uM after 72 hrs by propidium iodide staining based flow cytometry (reference value: 1.6 to 3.2%); type: functional
[3] = tested on: PANC-1; test: Induction of apoptosis in human PANC1 cells assessed as accumulation at sub-G0/G1 phase at 20 uM after 72 hrs by propidium iodide staining based flow cytometry (reference value: 1.6 to 3.2%); type: functional
[4] = tested on: PANC-1; test: Induction of apoptosis in human PANC1 cells assessed as accumulation at sub-G0/G1 phase at 20 uM after 48 hrs by propidium iodide staining based flow cytometry (reference value: 0.2 to 2.9%); type: functional
[5] = tested on: Fibroblast; test: Induction of apoptosis in human primary fibroblasts at 5 to 40 uM after 24 to 72 hrs by Annexin V/7-AAD staining based flow cytometry; type: cell-based
[6] = tested on: PK9; test: Induction of apoptosis in human PK9 cells at 5 to 40 uM after 24 to 72 hrs by Annexin V/7-AAD staining based flow cytometry; type: functional, cell-based
[7] = tested on: PANC-1; test: Induction of apoptosis in human PANC1 cells assessed as accumulation at sub-G0/G1 phase at 20 uM after 24 hrs by propidium iodide staining based flow cytometry (reference value: 0.6 to 0.7%); type: functional
[8] = tested on: PANC-1; test: Induction of apoptosis in human PANC1 cells assessed as accumulation at sub-G0/G1 phase at 10 uM after 48 hrs by propidium iodide staining based flow cytometry (reference value: 0.2 to 2.9%); type: functional
[9] = Induction of apoptosis in HPNE cells at 5 to 40 uM after 24 to 72 hrs by Annexin V/7-AAD staining based flow cytometry; type: cell-based; details: human
[10] = tested on: BXPC-3; test: Growth inhibition of human BxPC3 cells after 72 hrs by XTT assay; type: functional, cell-based; details: BXPC-3, 72 h
[11] = tested on: PANC-1; test: Induction of apoptosis in human PANC1 cells assessed as accumulation at sub-G0/G1 phase at 10 uM after 24 hrs by propidium iodide staining based flow cytometry (reference value: 0.6 to 0.7%); type: functional
[12] = tested on: MIA PaCa-2; test: Induction of autophagy in human MIAPaCa2 cells assessed as increase in LC3-2 protein expression at 20 uM after 24 to 48 hrs by Western blot analysis; type: functional, cell-based
[13] = tested on: MIA PaCa-2; test: Induction of apoptosis in human MIAPaCa2 cells assessed as live cells at 20 uM after 48 hrs by Annexin V-FITC/propidium iodide staining based flow cytometry (reference value: 86.79%); type: functional
[14] = tested on: BXPC-3; test: Induction of autophagy in human BxPC3 cells assessed as increase in LC3-2 protein expression at 20 uM after 24 to 48 hrs by Western blot analysis; type: functional, cell-based
[15] = tested on: MIA PaCa-2; test: Induction of apoptosis in human MIAPaCa2 cells assessed as necrotic cells at 20 uM after 48 hrs by Annexin V-FITC/propidium iodide staining based flow cytometry (reference value: 0.63%); type: functional
[16] = tested on: MIA PaCa-2; test: Induction of apoptosis in human MIAPaCa2 cells assessed as early apoptotic cells at 20 uM after 48 hrs by Annexin V-FITC/propidium iodide staining based flow cytometry (reference value: 5.16%); type: functional
[17] = tested on: MIA PaCa-2; test: Induction of apoptosis in human MIAPaCa2 cells assessed as necrotic cells at 20 uM after 24 hrs by Annexin V-FITC/propidium iodide staining based flow cytometry (reference value: 0.63%); type: functional
[18] = tested on: MIA PaCa-2; test: Induction of apoptosis in human MIAPaCa2 cells assessed as live cells at 20 uM after 24 hrs by Annexin V-FITC/propidium iodide staining based flow cytometry (reference value: 86.79%); type: functional
[19] = tested on: MIA PaCa-2; test: Induction of apoptosis in human MIAPaCa2 cells assessed as early apoptotic cells at 20 uM after 24 hrs by Annexin V-FITC/propidium iodide staining based flow cytometry (reference value: 5.16%); type: functional
[20] = tested on: BXPC-3; test: Induction of apoptosis in human BxPC3 cells assessed as increase in cleaved PARP protein expression at 20 uM after 24 to 48 hrs by Western blot analysis; type: functional, cell-based
[21] = tested on: MIA PaCa-2; test: Induction of apoptosis in human MIAPaCa2 cells assessed as late apoptotic cells at 20 uM after 48 hrs by Annexin V-FITC/propidium iodide staining based flow cytometry (reference value: 7.4%); type: functional
[22] = tested on: MIA PaCa-2; test: Induction of apoptosis in human MIAPaCa2 cells assessed as late apoptotic cells at 20 uM after 24 hrs by Annexin V-FITC/propidium iodide staining based flow cytometry (reference value: 7.4%); type: functional
[23] = tested on: MIA PaCa-2; test: Induction of apoptosis in human MIAPaCa2 cells assessed as increase in cleaved PARP protein expression at 20 uM after 24 to 48 hrs by Western blot analysis; type: functional, cell-based
[24] = tested on: PK9; test: Antiproliferative activity against human PK9 cells; type: functional, cell-based
[25] = tested on: MIA PaCa-2; test: Antiproliferative activity against human MIAPaCa2 cells; type: functional, cell-based
[26] = tested on: Jurkat; test: Growth inhibition of human Jurkat cells after 72 hrs; type: functional, cell-based
[27] = tested on: ACHN; test: Growth inhibition of human ACHN cells after 72 hrs; type: functional, cell-based
[28] = tested on: NCI-H460; test: Growth inhibition of human NCI-H460 cells after 72 hrs; type: functional, cell-based; details: NCI-H460, 72 h
[29] = tested on: HeLa; test: Growth inhibition of human HeLa cells after 72 hrs; type: functional, cell-based

SMILES	IC50 [1] [µM]	Activity [2] [%]	Activity [3] [%]	Activity [4] [%]	Activity [5]	Activity [6]	Activity [7] [%]	Activity [8] [%]	Activity [9]	IC50 [10] [µM]	Activity [11] [%]	IC50 [24] [µM]	IC50 [25] [µM]	also measured
Cl.NCC(=O)N1CCC[C@H]1COCCCCCCCCC/C=C/c1ccc(-c2ccccc2)cc1	6.3	35.8	30.5	13.3	Toxic	Active	1.6	16.6	Toxic	7	2	–	–	–
CCCCCCCC/C=C\CCCCCCCCOC[C@@H]1CCCN1C(=O)[C@@H]1CCCN1.Cl	5	56.3	74.9	21.3	Toxic	Active	4.4	12.3	Toxic	4.3	2.6	–	–	Activity [12]: inactive; Activity [13]: 81.02%; Activity [14]: inactive; Activity [15]: 0.16%; Activity [16]: 10.86%; Activity [17]: 1.1%; Activity [18]: 83.47%; Activity [19]: 6.78%; Activity [20]: inactive; Activity [21]: 7.94%; Activity [22]: 8.64%; Activity [23]: inactive
CCCCCCCCCCCCc1cn(CC[C@H]2NC[C@@H](O)[C@H]2O)nn1	–	–	–	–	–	–	–	–	–	–	–	14 to 45	14 to 45	–
CCCCCCCCCCCCc1cn(C[C@@H]2N[C@@H](C)[C@@H](O)[C@H]2O)nn1	–	–	–	–	–	–	–	–	–	–	–	14 to 45	14 to 45	–
CCCCCCCCCCCCc1cn(C[C@H]2NC[C@H](O)[C@@H]2O)nn1	–	–	–	–	–	–	–	–	–	–	–	14 to 45	14 to 45	–
CCCCCCCC/C=C\CCCCCCCCOC[C@@H]1CCCN1C(=O)CN.Cl	7.7	52.9	50.3	7.9	Toxic	Active	2.2	13.7	Toxic	5.3	2.4	–	–	–
Cl.NCC(=O)N1CCC[C@H]1COCCCCCC/C=C/c1ccc(-c2ccccc2)cc1	5.7	9.5	24.7	6.3	Toxic	Active	1.5	6.1	Toxic	6	0.9	–	–	–
CCCCCCCC/C=C\CCCCCCCCOC[C@H]1NC[C@H](O)[C@@H]1O	–	–	–	–	–	–	–	–	–	–	–	–	–	IC50 [26]: 7 µM; IC50 [27]: 3 µM; IC50 [28]: 9 µM; IC50 [29]: 8 µM
